Laboratory results published in patent publication US7452887B2, “Quinoline- and isoquinoline-based compounds exhibiting ATP-utilizing enzyme inhibitory activity, and compositions, and uses thereof” (Amphora Discovery Corporation, priority 2004, dated 2008).

Tests used:
PRAK = molecular target: T1, PRAK (Homo sapiens, UniProt Q8IW41); assay: HTS ATP-utilizing enzyme assay, off-chip mobility-shift (Caliper HTS 250); assay type: biochemical; details: test compound 10 μM, kinase listed = active (greater than six-sigma from the mean activity of inactive compounds)
T1 sequence (Q8IW41 1-473): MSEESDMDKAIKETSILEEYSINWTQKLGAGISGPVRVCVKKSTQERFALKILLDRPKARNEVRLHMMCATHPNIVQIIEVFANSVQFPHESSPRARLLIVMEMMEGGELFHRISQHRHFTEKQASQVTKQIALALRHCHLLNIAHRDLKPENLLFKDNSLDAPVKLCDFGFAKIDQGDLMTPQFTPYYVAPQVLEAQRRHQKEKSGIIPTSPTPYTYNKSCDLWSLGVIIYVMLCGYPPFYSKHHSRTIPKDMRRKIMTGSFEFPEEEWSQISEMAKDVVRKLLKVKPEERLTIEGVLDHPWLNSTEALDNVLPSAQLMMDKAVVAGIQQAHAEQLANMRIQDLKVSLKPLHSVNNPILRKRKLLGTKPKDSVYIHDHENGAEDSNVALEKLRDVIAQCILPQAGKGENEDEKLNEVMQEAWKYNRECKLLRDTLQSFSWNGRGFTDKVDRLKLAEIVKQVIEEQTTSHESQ
Excerpt: The following procedures describe the reagent and plate preparation for a HTS of an ATP-utilizing enzyme, such as a protein kinase, run in an off-chip mobility-shift assay format. The following provides an HTS protocol for running a protein kinase HTS screen on a Caliper HTS 250 microfluidics system. The following parameters are dependent on the protein kinase used and can be determined by one skilled in the art as part of a typical assay development process. For example, the peptide substrate used can be identified from the current literature, by screening a peptide library of potential protein kinase substrates, or by other applicable means accepted in the field.
The following table provides typical screen assay parameters appropriate for a Caliper HTS 250 microfluidics system.
The reagents and buffers listed in the following table are generally applicable for developing and running an HTS screen on a human protein kinase using the Caliper HTS 250 system.
The following reagents were prepared using the previously described buffers.
A 2× Master Buffer solution was prepared by combining 200 mL of 1 M HEPES, pH 7.5, 2 mL of 10% Triton X-100, 20 mL of 10% BSA, and 778 mL of H2O.
A 2.5× Substrate Buffer solution was prepared by combining 177.408 mL of 2× Master Buffer, 0.887 mL of 1 mM peptide-X, and 176.521 mL of H2O.
A 1.55× Termination Buffer solution was prepared by combining 762.05 mL of 2× Master Buffer, 95.1 mL of 0.5 M EDTA, and 666.94 mL of H2O.
A TCB Buffer solution was prepared by combining 125 mL of 2× Master Buffer, 10 mL of 0.5 M EDTA, 6.25 mL of 4% coating reagent, 1.01 mL of 100% DMSO, and 107.74 mL H2O.
A Dye Trough solution was prepared by combining 0.5 μL of peptide-X, and 2,999.5 μL of IX Master Buffer.
A 1.06× Assay Buffer solution was prepared by combining 205.15 mL of 2× Master Buffer, and 181.92 mL of H2O.
Assays to determine the kinase inhibitory activity of compounds of the present disclosure were performed using a Caliper HTS 250 microfluidics device, Greiner U-bottom assay plates, a Multidrop for transfer of reagents, and Biomek FX (AMNCBM03) software. Initially, 2.4 μL of a 1 mM solution of a test compound in 100% DMSO was added to a well of the Greiner U-bottom plate. A single Greiner U-bottom plate having 24×16 wells could include multiple test compounds. Next, […] of 1.06× Assay Buffer was added to each well of the assay plate. Using the Biomek FX, 10 μL of 0.5 M EDTA was added by the span-8 to wells, indicated as 100% Control and 2.4 μL of 100% DMSO was added by the span-8 to wells, indicated as 0% Control. Using the Multidrop, 10 μL of 2.5× Enzyme Buffer, followed by 10 μL of 2.5× Substrate Buffer was added to each well of the assay plate. The total reaction volume in each well was 25 μL, and the concentration of the test compound was 10 μM. The assay plate was incubated for 2.5 hrs at 20° C. to 22° C. After the incubation period, using the Multidrop, 45 μL of 1.55× Termination Buffer was added to each well of the assay plate to stop the reaction. The inhibition of the ATP-utilizing enzyme, such as a particular protein kinase, was determined by measuring the ratio of the peptide substrate to phosphorylated product for each well of the assay plate using the Caliper HTS 250 system.
The use of six-sigma statistical limits represents a conservative method for declaring potential hits among targets. The six-sigma activity, as well as the mean population activity, can be different for each target enzyme. This method has an expected false positive rate, from an in-control measurement process, of one in one million.

MAPKAPK2 = MAPKAPK2 (Homo sapiens, UniProt P49137); assay: as above; assay type: biochemical; details: test compound 10 μM, kinase listed = active (greater than six-sigma from the mean activity of inactive compounds)
Method in brief: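 Phosphorylation of a peptide substrate was quantified by Caliper mobility-shift separation of substrate and product after 2.5 h at 20-22 °C, with compounds tested at 10 μM. Inhibition was normalized to EDTA-quenched (100%) and DMSO (0%) controls; six-sigma thresholds flagged actives.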

Sequence of MAPKAPK2 (P49137 whole entry): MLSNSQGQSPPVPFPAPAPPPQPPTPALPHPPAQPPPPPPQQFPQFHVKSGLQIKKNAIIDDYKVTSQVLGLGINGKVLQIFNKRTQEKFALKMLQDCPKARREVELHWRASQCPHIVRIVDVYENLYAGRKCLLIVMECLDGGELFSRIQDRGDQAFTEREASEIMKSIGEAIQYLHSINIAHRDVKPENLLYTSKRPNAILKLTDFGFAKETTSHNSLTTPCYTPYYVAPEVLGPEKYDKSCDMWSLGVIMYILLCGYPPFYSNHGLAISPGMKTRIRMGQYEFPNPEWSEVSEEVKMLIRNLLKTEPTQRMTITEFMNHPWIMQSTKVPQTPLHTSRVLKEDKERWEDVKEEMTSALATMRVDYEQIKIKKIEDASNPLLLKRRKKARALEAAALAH

## CN1CCN(c2ccc(Nc3ccnc4ccc(-c5cccc(C(F)(F)F)c5)cc34)cc2)CC1 [N-(4-(4-methylpiperazin-1-yl)phenyl)-6-(3-(trifluoromethyl)phenyl)quinolin-4-amine]
PRAK
  Activity: PRAK

## CN1CCN(c2ccc(Nc3ccnc4ccc(-c5ccc([S+](C)[O-])cc5)cc34)cc2)CC1 (stereo not drawn) [N-(4-(4-methylpiperazin-1-yl)phenyl)-6-(4-(methylsulfinyl)phenyl)quinolin-4-amine]
PRAK
  Activity: PRAK
MAPKAPK2
  Activity: MAPKAPK2

## CN1CCN(c2ccc(Nc3ccnc4ccc(-c5cccc(F)c5)cc34)cc2)CC1 [6-(3-fluorophenyl)-N-(4-(4-methylpiperazin-1-yl)phenyl)quinolin-4-amine]
PRAK
  Activity: PRAK
MAPKAPK2
  Activity: MAPKAPK2

## CC(C)c1cccc(-c2ccc3nccc(Nc4ccc(N5CCN(C)CC5)cc4)c3c2)c1 [6-(3-isopropylphenyl)-N-(4-(4-methylpiperazin-1-yl)phenyl)quinolin-4-amine]
PRAK
  Activity: PRAK
MAPKAPK2
  Activity: MAPKAPK2

## CC(=O)c1ccc(-c2ccc3nccc(Nc4ccc(N5CCN(C)CC5)cc4)c3c2)s1 [1-(5-(4-(4-(4-methylpiperazin-1-yl)phenylamino)quinolin-6-yl)thiophen-2-yl)ethanone]
PRAK
  Activity: PRAK
MAPKAPK2
  Activity: MAPKAPK2

## COc1ccc(C(C)C)cc1-c1ccc2nccc(Nc3ccc(N4CCN(C)CC4)cc3)c2c1 [6-(5-isopropyl-2-methoxyphenyl)-N-(4-(4-methylpiperazin-1-yl)phenyl)quinolin-4-amine]
PRAK
  Activity: PRAK
MAPKAPK2
  Activity: MAPKAPK2

## CCOc1ccc(-c2ccc3nccc(Nc4ccc(N5CCN(C)CC5)cc4)c3c2)cc1 [6-(4-ethoxyphenyl)-N-(4-(4-methylpiperazin-1-yl)phenyl)quinolin-4-amine]
PRAK
  Activity: PRAK
MAPKAPK2
  Activity: MAPKAPK2

## COc1ccc(F)cc1-c1ccc2nccc(Nc3ccc(N4CCN(C)CC4)cc3)c2c1 [6-(5-fluoro-2-methoxyphenyl)-N-(4-(4-methylpiperazin-1-yl)phenyl)quinolin-4-amine]
PRAK
  Activity: PRAK
MAPKAPK2
  Activity: MAPKAPK2

## CN1CCN(c2ccc(Nc3ccnc4ccc(-c5ccccc5)cc34)cc2)CC1 [N-(4-(4-methylpiperazin-1-yl)phenyl)-6-phenylquinolin-4-amine]
PRAK
  Activity: PRAK

## CN1CCN(c2ccc(Nc3ccnc4ccc(-c5ccc(OC(F)(F)F)cc5)cc34)cc2)CC1 [N-(4-(4-methylpiperazin-1-yl)phenyl)-6-(4-(trifluoromethoxy)phenyl)quinolin-4-amine]
PRAK
  Activity: PRAK
MAPKAPK2
  Activity: MAPKAPK2

## COc1ccc(OC)c(-c2ccc3nccc(Nc4ccc(N5CCN(C)CC5)cc4)c3c2)c1 [6-(2,5-dimethoxyphenyl)-N-(4-(4-methylpiperazin-1-yl)phenyl)quinolin-4-amine]
PRAK
  Activity: PRAK
MAPKAPK2
  Activity: MAPKAPK2

## CSc1ccc(-c2ccc3nccc(Nc4ccc(N5CCN(C)CC5)cc4)c3c2)cc1 [N-(4-(4-methylpiperazin-1-yl)phenyl)-6-(4-(methylthio)phenyl)quinolin-4-amine]
PRAK
  Activity: PRAK

## N#CCCN1CCN(c2ccc(Nc3ccnc4ccc(-c5ccccc5)cc34)cc2)CC1 [3-(4-(4-(6-phenylquinolin-4-ylamino)phenyl)piperazin-1-yl)propanenitrile]
PRAK
  Activity: PRAK
MAPKAPK2
  Activity: MAPKAPK2

## N#Cc1ccc(-c2ccc3nccc(Nc4ccc(N5CCNCC5)cc4)c3c2)cc1 [4-(4-(4-(piperazin-1-yl)phenylamino)quinolin-6-yl)benzonitrile]
PRAK
  Activity: PRAK
MAPKAPK2
  Activity: MAPKAPK2

## CN1CCN(c2ccc(Nc3ccnc4ccc(-c5cc(F)cc(F)c5)cc34)cc2)CC1 [6-(3,5-difluorophenyl)-N-(4-(4-methylpiperazin-1-yl)phenyl)quinolin-4-amine]
PRAK
  Activity: PRAK
MAPKAPK2
  Activity: MAPKAPK2

## CCCN1CCN(c2ccc(Nc3ccnc4ccc(-c5ccc(C#N)cc5)cc34)cc2)CC1 [4-(4-(4-(4-propylpiperazin-1-yl)phenylamino)quinolin-6-yl)benzonitrile]
PRAK
  Activity: PRAK
MAPKAPK2
  Activity: MAPKAPK2

## CCN1CCN(c2ccc(Nc3ccnc4ccc(-c5ccccc5)cc34)cc2)CC1 [N-(4-(4-ethylpiperazin-1-yl)phenyl)-6-phenylquinolin-4-amine]
PRAK
  Activity: PRAK
MAPKAPK2
  Activity: MAPKAPK2

## CN1CCN(c2ccc(Nc3ccnc4ccc(-c5ccccc5F)cc34)cc2)CC1 [6-(2-fluorophenyl)-N-(4-(4-methylpiperazin-1-yl)phenyl)quinolin-4-amine]
PRAK
  Activity: PRAK
MAPKAPK2
  Activity: MAPKAPK2

## CN1CCN(c2ccc(Nc3ccnc4ccc(-c5ccsc5)cc34)cc2)CC1 [N-(4-(4-methylpiperazin-1-yl)phenyl)-6-(thiophen-3-yl)quinolin-4-amine]
PRAK
  Activity: PRAK
MAPKAPK2
  Activity: MAPKAPK2

## CN1CCN(c2ccc(Nc3ccnc4ccc(-c5cccc(OC(F)(F)F)c5)cc34)cc2)CC1 [N-(4-(4-methylpiperazin-1-yl)phenyl)-6-(3-(trifluoromethoxy)phenyl)quinolin-4-amine]
PRAK
  Activity: PRAK
MAPKAPK2
  Activity: MAPKAPK2

## CCCCc1ccc(-c2ccc3nccc(Nc4ccc(N5CCN(C)CC5)cc4)c3c2)cc1 [6-(4-butylphenyl)-N-(4-(4-methylpiperazin-1-yl)phenyl)quinolin-4-amine]
PRAK
  Activity: PRAK
MAPKAPK2
  Activity: MAPKAPK2

## CCN1CCN(c2ccc(Nc3ccnc4ccc(-c5ccc(C#N)cc5)cc34)cc2)CC1 [4-(4-(4-(4-ethylpiperazin-1-yl)phenylamino)quinolin-6-yl)benzonitrile]
PRAK
  Activity: PRAK
MAPKAPK2
  Activity: MAPKAPK2

## N#Cc1ccc(-c2ccc3nccc(Nc4ccc(N5CCN(CC(=O)O)CC5)cc4)c3c2)cc1 [2-(4-(4-(6-(4-cyanophenyl)quinolin-4-ylamino)phenyl)piperazin-1-yl)acetic acid]
PRAK
  Activity: PRAK
MAPKAPK2
  Activity: MAPKAPK2

## OCCCN1CCN(c2ccc(Nc3ccnc4ccc(-c5ccccc5)cc34)cc2)CC1 [3-(4-(4-(6-phenylquinolin-4-ylamino)phenyl)piperazin-1-yl)propan-1-ol]
PRAK
  Activity: PRAK
MAPKAPK2
  Activity: MAPKAPK2

## CN1CCN(c2ccc(Nc3ccnc4ccc(-c5ccc(CO)cc5)cc34)cc2)CC1 [(4-(4-(4-(4-methylpiperazin-1-yl)phenylamino)quinolin-6-yl)phenyl)methanol]
PRAK
  Activity: PRAK
MAPKAPK2
  Activity: MAPKAPK2

## CN(C)C1CCN(c2ccc(Nc3ccnc4ccc(-c5ccc(C#N)cc5)cc34)cc2)C1 (stereo not drawn) [4-(4-(4-(3-(dimethylamino)pyrrolidin-1-yl)phenylamino)quinolin-6-yl)benzonitrile]
PRAK
  Activity: PRAK
